{"source": "the OligoGym collection", "note": "Values joined by “and” are separate entries in the source; they are usually repeats but may differ in a detail not shown here. Identical values can stand only once. After the bases stand the sugars from the 5' end (letter, count) and the backbone: PS all phosphorothioate, else s phosphorothioate and o phosphodiester by linkage. Methylation of C is not given here. k = constrained ethyl (cEt); d = 2'-deoxy (DNA)"}
{"target": "MALAT1", "conditions": "ASO, A431, 0.005 µM"}
{"sequence": "TAGAGCTTCTCCATTT (sugars k3 d10 k3, PS)", "target mRNA inhibition": "-15%"}
{"sequence": "ACCAACTAAGCGAATG (sugars k3 d10 k3, PS)", "target mRNA inhibition": "-12%"}
{"sequence": "TCCCTAACATGCAATA (sugars k3 d10 k3, PS)", "target mRNA inhibition": "30%"}
{"sequence": "TCATTACCCCAACTAA (sugars k3 d10 k3, PS)", "target mRNA inhibition": "17%"}
{"sequence": "AAGATTTGAGCTGCAA (sugars k3 d10 k3, PS)", "target mRNA inhibition": "-1%"}
{"sequence": "ACCACTCTAAGATTGT (sugars k3 d10 k3, PS)", "target mRNA inhibition": "-11%"}
{"sequence": "GGGACGGTTGAGAAGT (sugars k3 d10 k3, PS)", "target mRNA inhibition": "7%"}
{"sequence": "ACCGTAACAGGCCACT (sugars k3 d10 k3, PS)", "target mRNA inhibition": "20%"}
{"sequence": "CAAAATGGCGGACTTT (sugars k3 d10 k3, PS)", "target mRNA inhibition": "17%"}
{"sequence": "CTAAAAGCATTGCCCT (sugars k3 d10 k3, PS)", "target mRNA inhibition": "35%"}
{"sequence": "AGATTTGAGCTGCAAA (sugars k3 d10 k3, PS)", "target mRNA inhibition": "11%"}
{"sequence": "ATCACCTTCGGTTTAA (sugars k3 d10 k3, PS)", "target mRNA inhibition": "40%"}
{"sequence": "GCTGAAATTGTCTCAA (sugars k3 d10 k3, PS)", "target mRNA inhibition": "45%"}
{"sequence": "GGACAGCTAAGATAGC (sugars k3 d10 k3, PS)", "target mRNA inhibition": "22%"}
{"sequence": "TTGGGAGTTACTTGCC (sugars k3 d10 k3, PS)", "target mRNA inhibition": "70% and 73%"}
{"sequence": "TCGGTTTAATCTCTTT (sugars k3 d10 k3, PS)", "target mRNA inhibition": "63% and 73%"}
{"sequence": "TTATTAAGAGCTGCTA (sugars k3 d10 k3, PS)", "target mRNA inhibition": "27% and 44%"}
{"sequence": "TGGTTTTAATACCCTT (sugars k3 d10 k3, PS)", "target mRNA inhibition": "11%"}
{"sequence": "ATACTGAAAACTCCCC (sugars k3 d10 k3, PS)", "target mRNA inhibition": "14%"}
{"sequence": "GTAAACCTGTGGTGGT (sugars k3 d10 k3, PS)", "target mRNA inhibition": "56% and 60%"}
{"sequence": "GAGTTCAAGTGGCCTT (sugars k3 d10 k3, PS)", "target mRNA inhibition": "17%"}
{"sequence": "AGATAGCAGCACAACT (sugars k3 d10 k3, PS)", "target mRNA inhibition": "-5%"}
{"sequence": "CCCTTCAAGCACCGCT (sugars k3 d10 k3, PS)", "target mRNA inhibition": "28%"}
{"sequence": "TCTTGAGGGACAGTAG (sugars k3 d10 k3, PS)", "target mRNA inhibition": "-7%"}
{"sequence": "CCTTTGTGAGGGAGGC (sugars k3 d10 k3, PS)", "target mRNA inhibition": "-5%"}
{"sequence": "CCTGATCTGGTCCATT (sugars k3 d10 k3, PS)", "target mRNA inhibition": "44%"}
{"sequence": "TCAATCCACTTGATCC (sugars k3 d10 k3, PS)", "target mRNA inhibition": "14%"}
{"sequence": "CATGGATTTCAAGGTC (sugars k3 d10 k3, PS)", "target mRNA inhibition": "11%"}
{"sequence": "AAAGAACTAGTGGTTC (sugars k3 d10 k3, PS)", "target mRNA inhibition": "-4%"}
{"sequence": "GAATCTTACTTGATAA (sugars k3 d10 k3, PS)", "target mRNA inhibition": "13%"}
{"sequence": "TAACTTCCCCCAGCTT (sugars k3 d10 k3, PS)", "target mRNA inhibition": "20%"}
{"sequence": "CACAAAACCCCCGGAA (sugars k3 d10 k3, PS)", "target mRNA inhibition": "19%"}
{"sequence": "TCTCAACCTCCGTCAT (sugars k3 d10 k3, PS)", "target mRNA inhibition": "27%"}
{"sequence": "AGCGAGTTCAAGTGGC (sugars k3 d10 k3, PS)", "target mRNA inhibition": "27%"}
{"sequence": "ACAACAAGTAAGCCCC (sugars k3 d10 k3, PS)", "target mRNA inhibition": "-7%"}
{"sequence": "GAGATACCTGTCTGAG (sugars k3 d10 k3, PS)", "target mRNA inhibition": "40%"}
{"sequence": "CCCATAACTGATCTGA (sugars k3 d10 k3, PS)", "target mRNA inhibition": "42%"}
{"sequence": "ATTACGCAACTGAGCC (sugars k3 d10 k3, PS)", "target mRNA inhibition": "16%"}
{"sequence": "AAACTAAGCTACTATA (sugars k3 d10 k3, PS)", "target mRNA inhibition": "-17%"}
{"sequence": "GCCCCTGCGCTGGCTG (sugars k3 d10 k3, PS)", "target mRNA inhibition": "12%"}
{"sequence": "TTAAAGTAGACCAACT (sugars k3 d10 k3, PS)", "target mRNA inhibition": "27%"}
{"sequence": "TGGAAACCAGGAGTGC (sugars k3 d10 k3, PS)", "target mRNA inhibition": "14%"}
{"sequence": "GCCACTCAAATGCCTA (sugars k3 d10 k3, PS)", "target mRNA inhibition": "18%"}
{"sequence": "CCTATCTTCTCCAGTC (sugars k3 d10 k3, PS)", "target mRNA inhibition": "-13%"}
{"sequence": "GCTTATGGAACTTGAA (sugars k3 d10 k3, PS)", "target mRNA inhibition": "10%"}
